Laboratory results published in US8637525B2, “Compounds for the reduction of beta-amyloid production” (Bristol-Myers Squibb Company, priority 2009, dated 2014).

system: Aβ1-42 production; test: Cellular assay for inhibition of Aβ1-42 production (H4 APP751 SWE clone 8.20); assay type: cell-based; details: 19 h, H4 APP751 SWE clone 8.20 cells, 19 h incubation; class symbols; read-out: Activity Rating (Aβ42 cellular IC50)
How it was run: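 Cells incubate with compound for 19 h (37 °C, 5% CO2), the plate is briefly spun, and antibody mix is added straight to the wells: Wallac-conjugated 565 against the Aβ42 C-terminal neoepitope and APC-conjugated 26D6 against the Aβ N-terminus. After overnight sealing at 4 °C, signal is counted and IC50 fitted.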

IC50	Structure (SMILES)
10 to 100 nM	CNc1nc(Nc2ccc(-n3ncnc3C)c(F)c2)nc2c1CN(S(=O)(=O)C1CC1)CC2c1ccccc1 (stereo not drawn) [Example 142, 6-(cyclopropylsulfonyl)-N2-(3-fluoro-4-(5-methyl-1H-1,2,4-triazol-1-yl)phenyl)-N4-methyl-8-phenyl-5,6,7,8-tetrahydropyrido[4,3-d]pyrimidine-2,4-diamine]
10 to 100 nM	CCNc1nc(Nc2ccc(-n3cnc(C)n3)c(F)c2)nc2c1CN(C(=O)C1CC1)CC2c1ccccc1 (stereo not drawn) [Example 143, cyclopropyl(4-(ethylamino)-2-(3-fluoro-4-(3-methyl-1H-1,2,4-triazol-1-yl)phenylamino)-8-phenyl-7,8-dihydropyrido[4,3-d]pyrimidin-6(5H)-yl)methanone]
10 to 100 nM	CCNc1nc(Nc2ccc(-n3ncnc3C)c(F)c2)nc2c1CN(C(=O)C1CC1)CC2c1ccccc1 (stereo not drawn) [Example 144, cyclopropyl(4-(ethylamino)-2-(3-fluoro-4-(5-methyl-1H-1,2,4-triazol-1-yl)phenylamino)-8-phenyl-7,8-dihydropyrido[4,3-d]pyrimidin-6(5H)-yl)methanone]
10 to 100 nM	CCNc1nc(Nc2ccc(-n3cnc(C)n3)c(F)c2)nc2c1CN(CC(F)(F)F)CC2c1ccccc1 (stereo not drawn) [Example 145, N4-ethyl-N2-(3-fluoro-4-(3-methyl-1H-1,2,4-triazol-1-yl)phenyl)-8-phenyl-6-(2,2,2-trifluoroethyl)-5,6,7,8-tetrahydropyrido[4,3-d]pyrimidine-2,4-diamine]
10 to 100 nM	CCNc1nc(Nc2ccc(-n3ncnc3C)c(F)c2)nc2c1CN(CC(F)(F)F)CC2c1ccccc1 (stereo not drawn) [Example 146, N4-ethyl-N2-(3-fluoro-4-(5-methyl-1H-1,2,4-triazol-1-yl)phenyl)-8-phenyl-6-(2,2,2-trifluoroethyl)-5,6,7,8-tetrahydropyrido[4,3-d]pyrimidine-2,4-diamine]
10 to 100 nM	COc1cc(Nc2nc3c(c(N(C)C)n2)CN(S(C)(=O)=O)CC3c2ccccc2)ccc1-n1cnc(Cl)c1 (stereo not drawn) [Example 147, N2-(4-(4-chloro-1H-imidazol-1-yl)-3-methoxyphenyl)-N4,N4-dimethyl-6-(methylsulfonyl)-8-phenyl-5,6,7,8-tetrahydropyrido[4,3-d]pyrimidine-2,4-diamine]
1.5 to 9.9 nM	CNc1nc(Nc2ccc(-n3cnc(Cl)c3)c(OC)c2)nc2c1CN(C)CC2c1ccccc1 (stereo not drawn) [Example 148A, N2-(4-(4-chloro-1H-imidazol-1-yl)-3-methoxyphenyl)-N4,6-dimethyl-8-phenyl-5,6,7,8-tetrahydropyrido[4,3-d]pyrimidine-2,4-diamine]
10 to 100 nM	CNc1nc(Nc2ccc(-n3cnc(C)n3)c(F)c2)nc2c1CN(C)CC2c1ccccc1 (stereo not drawn) [Example 149, N2-(3-fluoro-4-(3-methyl-1H-1,2,4-triazol-1-yl)phenyl)-N4,6-dimethyl-8-phenyl-5,6,7,8-tetrahydropyrido[4,3-d]pyrimidine-2,4-diamine]
10 to 100 nM	CNc1nc(Nc2ccc(-n3ncnc3C)c(F)c2)nc2c1CN(C)CC2c1ccccc1 (stereo not drawn) [Example 150, N2-(3-fluoro-4-(5-methyl-1H-1,2,4-triazol-1-yl)phenyl)-N4,6-dimethyl-8-phenyl-5,6,7,8-tetrahydropyrido[4,3-d]pyrimidine-2,4-diamine]
1.5 to 9.9 nM	CCNc1nc(Nc2ccc(-n3cnc(Cl)c3)c(OC)c2)nc2c1CN(C)CC2c1ccccc1 (stereo not drawn) [Example 151, N2-(4-(4-chloro-1H-imidazol-1-yl)-3-methoxyphenyl)-N4-ethyl-6-methyl-8-phenyl-5,6,7,8-tetrahydropyrido[4,3-d]pyrimidine-2,4-diamine]
10 to 100 nM	CCNc1nc(Nc2ccc(-n3cnc(C)n3)c(F)c2)nc2c1CN(C)CC2c1ccccc1 (stereo not drawn) [Example 152, N4-ethyl-N2-(3-fluoro-4-(3-methyl-1H-1,2,4-triazol-1-yl)phenyl)-6-methyl-8-phenyl-5,6,7,8-tetrahydropyrido[4,3-d]pyrimidine-2,4-diamine]
10 to 100 nM	CCNc1nc(Nc2ccc(-n3ncnc3C)c(F)c2)nc2c1CN(C)CC2c1ccccc1 (stereo not drawn) [Example 153, N4-ethyl-N2-(3-fluoro-4-(5-methyl-1H-1,2,4-triazol-1-yl)phenyl)-6-methyl-8-phenyl-5,6,7,8-tetrahydropyrido[4,3-d]pyrimidine-2,4-diamine]
1.5 to 9.9 nM	CCNc1nc(Nc2ccc(-n3cnc(Cl)c3)c(OC)c2)nc2c1CN(S(C)(=O)=O)CC2c1ccc(F)cc1 (stereo not drawn) [Example 155A, N2-(4-(4-chloro-1H-imidazol-1-yl)-3-methoxyphenyl)-N4-ethyl-8-(4-fluorophenyl)-6-(methylsulfonyl)-5,6,7,8-tetrahydropyrido[4,3-d]pyrimidine-2,4-diamine]
1.5 to 9.9 nM	CCNc1nc(Nc2ccc(-n3cnc(C)n3)c(F)c2)nc2c1CN(S(C)(=O)=O)CC2c1ccc(F)cc1 (stereo not drawn) [Example 156, N4-ethyl-N2-(3-fluoro-4-(3-methyl-1H-1,2,4-triazol-1-yl)pheny)-8-(4-fluorophenyl)-6-(methylsulfonyl)-5,6,7,8-tetrahydropyrido[4,3-d]pyrimidine-2,4-diamine]
10 to 100 nM	CCNc1nc(Nc2ccc(-n3ncnc3C)c(F)c2)nc2c1CN(S(C)(=O)=O)CC2c1ccc(F)cc1 (stereo not drawn) [Example 157, N4-ethyl-N2-(3-fluoro-4-(5-methyl-1H-1,2,4-triazol-1-yl)phenyl)-6-(methylsulfonyl)-8-(4-fluorophenyl)-5,6,7,8-tetrahydropyrido[4,3-d]pyrimidine-2,4-diamine]
10 to 100 nM	CCN1Cc2c(nc(Nc3ccc(-n4cnc(Cl)c4)c(OC)c3)nc2N(C)CC)C(c2ccc(F)cc2)C1 (stereo not drawn) [Example 158, N2-(4-(4-chloro-1H-imidazol-1-yl)-3-methoxyphenyl)-N4,6-diethyl-8-(4-fluorophenyl)-N4-methyl-5,6,7,8-tetrahydropyrido[4,3-d]pyrimidine-2,4-diamine]
10 to 100 nM	COc1cc(Nc2nc3c(c(N4CC(F)(F)C4)n2)CN(C)CC3c2ccc(F)cc2)ccc1-n1cnc(Cl)c1 (stereo not drawn) [Example 159, N-(4-(4-chloro-1H-imidazol-1-yl)-3-methoxyphenyl)-4-(3,3-difluoroazetidin-1-yl)-8-(4-fluorophenyl)-6-methyl-5,6,7,8-tetrahydropyrido[4,3-d]pyrimidin-2-amine]
10 to 100 nM	COc1cc(Nc2nc3c(c(N4CC(F)(F)C4)n2)CN(S(C)(=O)=O)CC3c2ccc(F)cc2)ccc1-n1cnc(Cl)c1 (stereo not drawn) [Example 160, N-(4-(4-chloro-1H-imidazol-1-yl)-3-methoxyphenyl)-4-(3,3-difluoroazetidin-1-yl)-8-(4-fluorophenyl)-6-(methylsulfonyl)-5,6,7,8-tetrahydropyrido[4,3-d]pyrimidin-2-amine]
100 to 1000 nM	CCN(C)c1nc(Nc2ccc(-n3cnc(Cl)c3)c(OC)c2)nc2c1CNCC2c1ccc(F)cc1 (stereo not drawn) [Example 161, N2-(4-(4-chloro-1H-imidazol-1-yl)-3-methoxyphenyl)-N4-ethyl-8-(4-fluorophenyl)-N4-methyl-5,6,7,8-tetrahydropyrido[4,3-d]pyrimidine-2,4-diamine]
10 to 100 nM	COc1cc(Nc2nc3c(c(N4CC(F)(F)C4)n2)CNCC3c2ccc(F)cc2)ccc1-n1cnc(Cl)c1 (stereo not drawn) [Example 162, N-(4-(4-chloro-1H-imidazol-1-yl)-3-methoxyphenyl)-4-(3,3-difluoroazetidin-1-yl)-8-(4-fluorophenyl)-5,6,7,8-tetrahydropyrido[4,3-d]pyrimidin-2-amine]
1.5 to 9.9 nM	CNc1nc(Nc2ccc(-n3cnc(Cl)c3)c(OC)c2)nc2c1CN(C)CC2c1ccc(F)cc1 (stereo not drawn) [Example 163A, N2-(4-(4-chloro-1H-imidazol-1-yl)-3-methoxyphenyl)-8-(4-fluorophenyl)-N4,6-dimethyl-5,6,7,8-tetrahydropyrido[4,3-d]pyrimidine-2,4-diamine]

same assay, conditions: 19 h, H4 APP751 SWE clone 8.20 cells, 19 h incubation; read-out: Activity Rating (Aβ42 cellular IC50), numeric value

IC50	Structure (SMILES)
430 nM	CCNc1nc(Nc2ccc(-n3cnc(C)n3)c(F)c2)nc2c1CN(C(=O)C1CC1)CC2c1ccccc1 (stereo not drawn) [Example 143B, cyclopropyl(4-(ethylamino)-2-(3-fluoro-4-(3-methyl-1H-1,2,4-triazol-1-yl)phenylamino)-8-phenyl-7,8-dihydropyrido[4,3-d]pyrimidin-6(5H)-yl)methanone]
540 nM	CCNc1nc(Nc2ccc(-n3ncnc3C)c(F)c2)nc2c1CN(C(=O)C1CC1)CC2c1ccccc1 (stereo not drawn) [Example 144B, cyclopropyl(4-(ethylamino)-2-(3-fluoro-4-(5-methyl-1H-1,2,4-triazol-1-yl)phenylamino)-8-phenyl-7,8-dihydropyrido[4,3-d]pyrimidin-6(5H)-yl)methanone]
9.8 nM	CCNc1nc(Nc2ccc(-n3cnc(C)n3)c(F)c2)nc2c1CN(S(C)(=O)=O)CC2c1ccc(F)cc1 (stereo not drawn) [Example 156A, N4-ethyl-N2-(3-fluoro-4-(3-methyl-1H-1,2,4-triazol-1-yl)pheny)-8-(4-fluorophenyl)-6-(methylsulfonyl)-5,6,7,8-tetrahydropyrido[4,3-d]pyrimidine-2,4-diamine]

same assay, conditions: H4 APP751 SWE clone 8.20 cells, 19 h incubation; class symbols; read-out: Activity Rating (Aβ42 cellular IC50)

IC50	Structure (SMILES)
1.5 to 9.9 nM	CNc1nc(Nc2ccc(-n3cnc(C)n3)c(F)c2)nc2c1CN(S(=O)(=O)C1CC1)CC2c1ccccc1 (stereo not drawn) [Example 141A, 6-(cyclopropylsulfonyl)-N2-(3-fluoro-4-(3-methyl-1H-1,2,4-triazol-1-yl)phenyl)-N4-methyl-8-phenyl-5,6,7,8-tetrahydropyrido[4,3-d]pyrimidine-2,4-diamine]
10 to 100 nM	CNc1nc(Nc2ccc(-n3cnc(Cl)c3)c(OC)c2)nc2c1CN(S(C)(=O)=O)CC2c1ccc(F)cc1 (stereo not drawn) [Example 154, N2-(4-(4-chloro-1H-imidazol-1-yl)-3-methoxyphenyl)-8-(4-fluorophenyl)-N4-methyl-6-(methylsulfonyl)-5,6,7,8-tetrahydropyrido[4,3-d]pyrimidine-2,4-diamine]
1.5 to 9.9 nM	CNc1nc(Nc2ccc(-n3cnc(Cl)c3)c(OC)c2)nc2c1CN(S(C)(=O)=O)CC2c1ccc(F)cc1 (stereo not drawn) [Example 154A, N2-(4-(4-chloro-1H-imidazol-1-yl)-3-methoxyphenyl)-8-(4-fluorophenyl)-N4-methyl-6-(methylsulfonyl)-5,6,7,8-tetrahydropyrido[4,3-d]pyrimidine-2,4-diamine]
